According to publication PMC11969438 (Inorganic Chemistry Frontiers, 2025):

How the values were obtained:
[1] = test system: THP1-Dual cells; test: Quantitative RT-PCR of target genes downstream of STING; format: cell-based, human; details: 24 h, prodrugs 100 μM, MSA-2 25 μM
Description: The THP1-Dual cell model was seeded at 1 × 10^6 cells per well in six-well plates. After 24 h of recovery, the compounds were applied at the concentrations indicated. After 24 h of drug exposure, total RNA was isolated using TRIzol reagent (Thermo Fisher Scientific, MA, USA), as described previously.[12] RNA was reverse transcribed into cDNA using RevertAid Reverse Transcriptase (Thermo Fisher Scientific). Real-time PCR was performed using the GoTaq® RT-qPCR system (Promega) with a CFX96 Touch Real-Time PCR Detection System (Bio-Rad Laboratories). Relative mRNA levels were quantified using the 2^−ddCT method.[54] RPL41 was used as a housekeeping gene. Human-specific primers were purchased from Eurofins Genomics (Ebersberg, Germany) with the following sequences: RPL41: fwd (5′-[…]-3′), rev (5′-[…]-3′); IFNB1: fwd (5′-CTTGGATTCCTACAAAGAAGCAGC-3′), rev (5′-[…]-3′); ISG15: fwd (5′-[…]-3′), rev (5′-[…]-3′); IFIT1: fwd (5′-[…]-3′), rev (5′-[…]-3′); CXCL10: fwd (5′-[…]-3′), rev (5′-[…]-3′); and CCL5: fwd (5′-[…]-3′), rev (5′-[…]-3′).

[2] = test system: immune cell populations in tumor and spleen; test: Immune activation and infiltration by flow cytometry; format: in vivo, CT-26-bearing BALB/c mice; details: 24 h after second dose
Description: Tumor size was determined daily via manual caliper measurement. […] Animals were euthanized via cervical dislocation.
The generation and treatment of tumor-bearing mice are outlined in the section “In vivo syngraft experiments” above. Samples were kept on ice during the whole procedure. Tissues were prepared as described previously.[55] In brief, tumor and spleen tissues were collected and mechanically dissociated in DPBS buffer containing Ca^2+/Mg^2+ and FCS (5%). Tumor samples were digested using collagenase VIII (1 mg mL^−1) in a DPBS buffer (without Ca^2+/Mg^2+) supplemented with DNAse I (1 mg mL^−1) for 15 min at 37 °C under constant shaking. Samples were filtered using 70 μm cell strainers in a DPBS buffer (without Ca^2+/Mg^2+) containing FCS (5%), EDTA (5 mM) and DNase I (20 μg mL^−1). Subsequent washing steps were performed in DPBS buffer (without Ca^2+/Mg^2+) containing FCS (5%), EDTA (5 mM) and DNase I (20 μg mL^−1), unless indicated otherwise. Red blood cells were removed by short incubation with ACK buffer. For blocking, samples were incubated with the Ultra-LEAF purified anti-mouse CD16/CD32 antibody (clone: 93; #101330; RRID:AB_2783037; dilution: 1 : 1000) (Biolegend, San Diego, CA, USA) in the BD Horizon Brilliant Stain Buffer (#563794; BD Biosciences) for 10 min. Next, the samples were incubated with an antibody mixture in the BD Horizon Brilliant Stain Buffer for 30 min. Fluorescent dye-labeled antibodies targeting murine CD3 (17A2; #100203; RRID:AB_312661; 1 : 50), CD8a (53-6.7; #100738; RRID:AB_11204079; 1 : 160), CD19 (6D5; #115528; RRID:AB_493735; 1 : 400), CD49b (DX5; #108924; RRID:AB_2565271; 1 : 229), CD11b (M1/70; #101228; RRID:AB_893232; 1 : 80), and CD69 (H1.2F3; # 104512; RRID:AB_493564; 1 : 40) were purchased from BioLegend. The antibody targeting murine CD4 (RM4-5; # 85-0042-U100; 1 : 80) and the viability dye Ghost Dye Red 780 (#13-0865-T100; 1 : 1000) were purchased from Tonbobio (San Diego, CA, USA). The antibody targeting CD45 (30-F11; #363-0451-82; RRID:AB_2925264; 1 : 80) was purchased from Life Tech (Invitrogen). For intracellular staining of granzyme B (GzmB) (QA16A02; #372208; RRID:AB_2687032; 1 : 20) and FoxP3 (MF-14; #320014; RRID:AB_439750; 1 : 100) the True-Nuclear Transcription Factor Buffer Set (Biolegend; #424401) was used according to the manufacturer's recommendations. In brief, samples were incubated with Perm Fix Solution for 60 min at RT. Next, the samples were stained with antibodies targeting GzmB and FoxP3 (diluted in Perm buffer) for 30 min at RT. […] Next day, the samples were analyzed using a Cytek Aurora 5L (Cytek Biosciences, CA, USA) spectral flow cytometer. Data were analyzed using SpectroFlo (v3.2.1) (Cytek Biosciences) and FlowJo (v10.8.1) (FlowJo LLC, Ashland, OR, USA) software.

[3] = test system: THP1-Dual cells; test: Western blot analysis of STING downstream pathway, DNA damage and cell death markers; format: cell-based, human; details: 24 h
Description: The THP1-Dual cell model was seeded at 1 × 10^6 cells per well in six-well plates. After 24 h of recovery, the compounds were applied at the concentrations indicated. After 24 h of drug exposure, whole-cell protein isolation was performed as described previously.[14] Sodium dodecyl sulfate polyacrylamide gel electrophoresis was performed. Proteins were transferred onto polyvinylidene difluoride membranes (Thermo Scientific, Waltham, MA, USA). Antibodies targeting STING (##13 647; 1 : 1000), phospho-STING (#19 781; 1 : 500), TBK1 (#3504; 1 : 500), IRF-3 (#4302; 1 : 500), phospho-p65 (#3033; 1 : 500), ISG15 (#2743; 1 : 1000), caspase-3 (#9665; 1 : 1000), cleaved caspase-3 (#9661; 1 : 1000), PARP (#9532; 1 : 1000), and cleaved PARP (#9541; 1 : 1000) were purchased from Cell Signaling Technology (Danvers, MA, USA). The p65 antibody (#sc-372; 1 : 1000) was purchased from Santa Cruz and the phospho-H2A.X antibody (#05-636-I; 1 : 500) was obtained from Merck (Darmstadt, Germany). The anti-β-actin (#5441; 1 : 2000) antibody was obtained from Sigma-Aldrich. The anti-mouse IgG (#A0168; 1 : 10 000) horseradish peroxidase (HRP)-coupled secondary antibody was purchased from Sigma-Aldrich, and the anti-rabbit IgG (#7074; 1 : 5000) HRP-linked secondary antibody was obtained from Cell Signaling Technology.

SMILES: COCCOCCOCCOCCNC(=O)[O][Pt-2]12([O]C(=O)CCC(=O)c3cc4cc(OC)c(OC)cc4s3)([NH2+][C@@H]3CCCC[C@H]3[NH2+]1)[O]C(=O)C(=O)[O]2 [Ox-MSA-PEG-Ca, (OC-6-34)-[(1R,2R)-1,2-cyclohexanediamino]-oxalato-[4-(5,6-dimethoxybenzo[b]thiophen-2-yl)-4-oxobutylcarboxylato]-[3,6,9,12-tetraoxatridecan-1-amino]platinum(IV)]
- mRNA induction of immune response genes (IFN-β, ISG15, IFIT1, CXCL10, CCL5) [1]: distinctly raised transcript levels to a comparable extent as free MSA-2
- FoxP3+ CD4+ T cell compartment in the spleen [2]: selectively elevated
- DNA damage (p-H2A.X upregulation, cleavage of caspase-3 and PARP) [3]: induced DNA damage
- induction of ISG15 [3]: triggered

SMILES: COCCOCCOCCOCCC(=O)[O][Pt-2]12([O]C(=O)CCC(=O)c3cc4cc(OC)c(OC)cc4s3)([NH2+][C@@H]3CCCC[C@H]3[NH2+]1)[O]C(=O)C(=O)[O]2 [Ox-MSA-PEG-Es, (OC-6-44)-[(1R,2R)-1,2-cyclohexanediamino]-oxalato-[4-(5,6-dimethoxybenzo[b]thiophen-2-yl)-4-oxobutylcarboxylato]-[2,5,8,11-tetraoxatetradecanoato]platinum(IV)]
- mRNA induction of immune response genes (IFN-β, ISG15, IFIT1, CXCL10, CCL5) [1]: low propensity
- DNA damage (p-H2A.X upregulation, cleavage of caspase-3 and PARP) [3]: induced DNA damage

SMILES: O=C1[O][Pt]2([NH][C@@H]3CCCC[C@H]3[NH]2)[O]C1=O [oxaliplatin, reference compound]
- CD45+ cells among viable splenic cells [2]: significantly upregulated
- splenic CD8+ T cells in the CD45+ cell population [2]: strongest effect
